In ChEMBL document CHEMBL3045621, “Synthesis and Structure-activity Relationships of Herbicidal Thiophene Sulfonylurea Compounds” (J Pestic Sci, 1997):

Tests used:
Oryza sativa = experiment: Toxicity in two leaf stage of Oryza sativa var. Nihonbare (rice) assessed as dose required to selectivity to Oryza sativa; type: organism-based; details: in vivo
Echinochloa oryzicola = experiment: Herbicidal activity against Echinochloa oryzicola assessed as dose required to cause sufficient herbicidal activity; type: functional
Sagittaria pygmaea = experiment: Herbicidal activity against Sagittaria pygmaea assessed as dose required to cause sufficient herbicidal activity after 5 to 7 days; type: functional
[1] = tested on: Schoenoplectiella juncoides; experiment: Herbicidal activity against Schoenoplectiella juncoides assessed as dose required to cause sufficient herbicidal activity after 5 to 7 days; type: functional

| Compound | MED (Oryza sativa) [g/acre] | MED (Echinochloa oryzicola) [g/acre] | MED (Sagittaria pygmaea) [g/acre] | MED [1] [g/acre] |
| --- | --- | --- | --- | --- |
| COc1nc(NC(=O)NS(=O)(=O)c2csnc2COCCF)nc(OC)n1 | > 0.313 | 5 | 0.313 | 1.25 |
| COc1cc(OC)nc(NC(=O)NS(=O)(=O)c2sccc2C[N+](=O)[O-])n1 | 0.625 | – | – | – |
| COc1nc(NC(=O)NS(=O)(=O)c2ccoc2COCCF)nc(OC)n1 | 0.313 | 1.25 | 0.156 | 0.625 |
| COc1nc(NC(=O)NS(=O)(=O)c2c(COCCF)cnn2C)nc(OC)n1 | 1.25 | 0.625 | – | 0.313 |
| COc1nc(NC(=O)NS(=O)(=O)c2scnc2COCCF)nc(OC)n1 | 2.5 | 2.5 | 2.5 | 2.5 |
| COc1nc(NC(=O)NS(=O)(=O)c2snc(C)c2COCCF)nc(OC)n1 | 2.5 | 1.25 | 1.25 | 1.25 |
| COc1nc(NC(=O)NS(=O)(=O)c2ccccc2COCCF)nc(OC)n1 | 2.5 | 40 | 10 | 40 |
| COc1nc(NC(=O)NS(=O)(=O)c2ccc3ccccc3c2COCCF)nc(OC)n1 | < 2.5 | <2.5 | <2.5 | <2.5 |
| COc1nc(NC(=O)NS(=O)(=O)c2sc3ccccc3c2COCCF)nc(OC)n1 | < 2.5 | <2.5 | <2.5 | <2.5 |
| COc1nc(NC(=O)NS(=O)(=O)Cc2sccc2COCCF)nc(OC)n1 | < 2.5 | 80 | 20 | 20 |
| COc1cc(OC)nc(NC(=O)NS(=O)(=O)c2sccc2COCC(F)F)n1 | 0.312 | 1.25 | 0.0391 | 0.0781 |
| COc1cc(OC)nc(NC(=O)NS(=O)(=O)c2sccc2COCCF)n1 | 0.0781 | 0.313 | 0.0391 | 0.0391 |
| COc1cc(OC)nc(NC(=O)NS(=O)(=O)c2sccc2COCC(F)(F)Cl)n1 | 1.25 | 5 | – | 2.5 |
| COc1cc(OC)nc(NC(=O)NS(=O)(=O)c2ccsc2COCCF)n1 | 0.313 | – | – | 0.0781 |
| COc1cc(OC)nc(NC(=O)NS(=O)(=O)c2cscc2COCCF)n1 | 0.625 | – | 0.0781 | 0.156 |
| COc1cc(C)nc(NC(=O)NS(=O)(=O)c2sccc2COCCF)n1 | 0.156 | 0.0195 | 0.0391 | 0.0391 |
| Cc1cc(C)nc(NC(=O)NS(=O)(=O)c2sccc2COCCF)n1 | 0.156 | – | – | – |
| COc1cc(Cl)nc(NC(=O)NS(=O)(=O)c2sccc2COCCF)n1 | 0.625 | 0.156 | 0.313 | 0.156 |
| COc1cc(OCC(F)(F)F)nc(NC(=O)NS(=O)(=O)c2sccc2COCCF)n1 | 5 | 20 | 2.5 | 10 |
| O=C(Nc1nc(OC(F)F)cc(OC(F)F)n1)NS(=O)(=O)c1sccc1COCCF | 5 | 5 | 5 | 5 |
| COc1nc(NC(=O)NS(=O)(=O)c2sccc2COCCF)nc(OC)n1 | 0.313 | 5 | – | – |
| COc1nc(C)nc(NC(=O)NS(=O)(=O)c2sccc2COCCF)n1 | 0.0781 | 0.313 | 0.625 | 0.313 |
| C#CCOCc1ccsc1S(=O)(=O)NC(=O)Nc1nc(OC)cc(OC)n1 | 0.156 | 0.625 | 0.0391 | 0.0781 |
| COCCOCc1ccsc1S(=O)(=O)NC(=O)Nc1nc(OC)cc(OC)n1 | 0.156 | – | 0.313 | 0.313 |
| COc1cc(OC)nc(NC(=O)NS(=O)(=O)c2sccc2COCCCl)n1 | 0.625 | – | 0.156 | 0.156 |
| COc1cc(OC)nc(NC(=O)NS(=O)(=O)c2sccc2COCCCCl)n1 | 0.313 | 1.25 | – | – |
| COc1cc(OC)nc(NC(=O)NS(=O)(=O)c2sccc2COCC(Cl)(Cl)Cl)n1 | 1.25 | 5 | 2.5 | 2.5 |

| Compound | MED (Oryza sativa) [g/acre] | MED (Echinochloa oryzicola) [g/acre] | MED (Sagittaria pygmaea) [g/acre] | MED [1] [g/acre] |
| --- | --- | --- | --- | --- |
| COc1cc(OC)nc(NC(=O)NS(=O)(=O)c2sccc2COCC(F)(F)F)n1 | 1.25 | 2.5 | 0.156 | 0.156 |
| COc1cc(OC)nc(NC(=O)NS(=O)(=O)c2sccc2COCC(F)(F)C(F)(F)F)n1 | 0.625 | 5 | 2.5 | 1.25 |
| COc1cc(OC)nc(NC(=O)NS(=O)(=O)c2sccc2COCC(F)(F)C(F)(F)C(F)(F)F)n1 | 0.625 | 10 | 10 | 20 |
| COc1cc(OC)nc(NC(=O)NS(=O)(=O)c2sccc2COC(C)C(F)(F)F)n1 (stereo not given) | 1.25 | 5 | – | 2.5 |
| COc1cc(OC)nc(NC(=O)NS(=O)(=O)c2sccc2COC(C)(C)C(F)(F)F)n1 | 2.5 | 20 | 2.5 | 1.25 |
| COc1cc(OC)nc(NC(=O)NS(=O)(=O)c2sccc2COC(CF)CF)n1 | 0.625 | 1.25 | 0.313 | – |
| COc1cc(OC)nc(NC(=O)NS(=O)(=O)c2sccc2COCCCF)n1 | 0.625 | 0.313 | 0.156 | 0.313 |
| COc1cc(OC)nc(NC(=O)NS(=O)(=O)c2sccc2COCC2CCCO2)n1 (stereo not given) | 0.625 | 5 | 10 | 5 |
| COc1cc(OC)nc(NC(=O)NS(=O)(=O)c2sccc2CN(C)C)n1 | – | 20 | 10 | 10 |
| CCN(C)Cc1ccsc1S(=O)(=O)NC(=O)Nc1nc(OC)cc(OC)n1 | 20 | 20 | 5 | 10 |
| CCN(CC)Cc1ccsc1S(=O)(=O)NC(=O)Nc1nc(OC)cc(OC)n1 | 0.625 | 5 | – | – |
| COC(=O)NCc1ccsc1S(=O)(=O)NC(=O)Nc1nc(OC)cc(OC)n1 | 2.5 | 20 | 0.313 | 1.25 |
| CNC(=O)NCc1ccsc1S(=O)(=O)NC(=O)Nc1nc(OC)cc(OC)n1 | 2.5 | 10 | 10 | 20 |
| COc1cc(OC)nc(NC(=O)NS(=O)(=O)c2sccc2CNC(=O)CCl)n1 | 5 | 10 | 5 | 10 |
| COc1cc(OC)nc(NC(=O)NS(=O)(=O)c2sccc2Cn2cccn2)n1 | 0.625 | 5 | – | 1.25 |
| COc1cc(OC)nc(NC(=O)NS(=O)(=O)c2sccc2Cn2cc(C(F)(F)F)ccc2=O)n1 | 40 | 40 | 40 | 40 |
| CCOCc1ccsc1S(=O)(=O)NC(=O)Nc1nc(OC)cc(OC)n1 | 0.156 | 0.313 | 0.0391 | 0.0391 |
| C=CCOCc1ccsc1S(=O)(=O)NC(=O)Nc1nc(OC)cc(OC)n1 | 0.313 | 0.625 | 0.156 | 0.156 |
| COCc1ccsc1S(=O)(=O)NC(=O)Nc1nc(OC)cc(OC)n1 | 0.0781 | – | 0.0195 | 0.0391 |
| COc1cc(OC)nc(NC(=O)NS(=O)(=O)c2sccc2CC#N)n1 | 0.0391 | 0.625 | – | 0.156 |
| COc1cc(OC)nc(NC(=O)NS(=O)(=O)c2sccc2CSC)n1 | 0.156 | 0.313 | 0.0195 | – |
| COC(=O)Cc1ccsc1S(=O)(=O)NC(=O)Nc1nc(OC)cc(OC)n1 | 0.156 | 1.25 | 0.313 | 1.25 |
| CNC(=O)Cc1ccsc1S(=O)(=O)NC(=O)Nc1nc(OC)cc(OC)n1 | 1.25 | – | 0.313 | 0.625 |
| COc1cc(OC)nc(NC(=O)NS(=O)(=O)c2sccc2COCCO)n1 | 0.313 | 0.625 | – | 0.625 |
| CCOC(=O)COCc1ccsc1S(=O)(=O)NC(=O)Nc1nc(OC)cc(OC)n1 | 1.25 | – | – | – |
| COc1cc(OC)nc(NC(=O)NS(=O)(=O)c2sccc2COc2ccccc2)n1 | 0.625 | 2.5 | 0.313 | 1.25 |
| COc1cc(OC)nc(NC(=O)NS(=O)(=O)c2sccc2COc2cccc(C(F)(F)F)c2)n1 | 0.625 | 5 | 20 | 20 |
